This note sets out measurements from ChEMBL document CHEMBL5244260, “Aldose reductase and protein tyrosine phosphatase 1B inhibitors as a promising therapeutic approach for diabetes mellitus” (Eur J Med Chem, 2020).

The species entered for experiment [1] is Homo sapiens. Description: Selectivity ratio of Ki for human PTP1B expressed in Escherichia coli BL21 (DE3) to Ki for TCPTP (unknown origin).
Experiment [2] is filed under the species Homo sapiens. As to the kind of experiment: Selectivity ratio of Ki for human PTP1B expressed in Escherichia coli BL21 (DE3) to Ki for SHP-2 (unknown origin).
The species entered for experiment [3] is Homo sapiens. As to the kind of experiment: Selectivity ratio of Ki for human PTP1B expressed in Escherichia coli BL21 (DE3) to Ki for Calcineurin (unknown origin).
The species named for experiment [4] is Homo sapiens. Description: Selectivity ratio of Ki for human PTP1B expressed in Escherichia coli BL21 (DE3) to Ki for LAR (unknown origin).
The species entered for experiment [5] is Homo sapiens. As to the kind of experiment: Selectivity ratio of Ki for human PTP1B expressed in Escherichia coli BL21 (DE3) to Ki for CD45 (unknown origin).
The target of experiment [6] is T1, Aldo-keto reductase family 1 member B1 (Homo sapiens, UniProt P15121). Description: Inhibition of Aldose reductase (unknown origin).
Experiment [7] has as its target T2, Tyrosine-protein phosphatase non-receptor type 1 (Homo sapiens, UniProt P18031).
T2 sequence (P18031 whole entry): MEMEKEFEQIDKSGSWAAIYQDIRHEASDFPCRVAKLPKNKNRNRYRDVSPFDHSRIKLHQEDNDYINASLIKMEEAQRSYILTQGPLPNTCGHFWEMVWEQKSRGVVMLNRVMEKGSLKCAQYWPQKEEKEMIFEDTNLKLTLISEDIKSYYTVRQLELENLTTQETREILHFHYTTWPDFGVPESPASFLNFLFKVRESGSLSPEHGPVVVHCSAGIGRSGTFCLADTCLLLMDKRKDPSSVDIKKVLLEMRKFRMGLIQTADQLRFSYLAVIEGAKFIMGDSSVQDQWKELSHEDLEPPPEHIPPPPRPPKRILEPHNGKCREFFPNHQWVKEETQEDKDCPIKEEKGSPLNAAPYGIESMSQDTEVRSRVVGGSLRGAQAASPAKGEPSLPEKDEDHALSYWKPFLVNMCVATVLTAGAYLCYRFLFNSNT
As to the kind of experiment: Inhibition of PTP1B (1 to 321 residues) (unknown origin) expressed in Escherichia coli BL21 assessed as inhibition constant using pNPP as substrate incubated for 2 to 3 min by spectrophotometry analysis.

Experiment [8] addresses T1, Aldo-keto reductase family 1 member B1. As to the kind of experiment: Inhibition of human ALR2 assessed as inhibition constant.
A short description of experiment [9]: Inhibition of ALR2 in Wistar rat using D,L-glyceraldehyde as substrate preincubated for 10 mins in presence of NADPH followed by substrate addition and measured after 4 mins by spectrophotometric assay.
For experiment [10], the target named is T2, Tyrosine-protein phosphatase non-receptor type 1. Description: Inhibition of PTP1B (unknown origin) assessed as inhibition constant.
The species entered for experiment [11] is Homo sapiens. Description: Selectivity ratio of Ki for PTP1B (unknown origin) to Ki for TCPTP (unknown origin).
Experiment [12] concerns the target Aldo-keto reductase family 1 member B1 (Rattus norvegicus, UniProt P07943). As to the kind of experiment: Inhibition of recombinant Aldose reductase in rat lens using D,L-glyceraldehyde as substrate in presence of NADPH measured after 4 mins by spectrophotometric assay. Type of experiment: tissue-based.
The target in experiment [13] is T1, Aldo-keto reductase family 1 member B1. As to the kind of experiment: Inhibition of human ALR2 expressed in Escherichia coli BL21 (DE3) assessed as inhibition constant using D,L-glyceraldehyde as substrate in presence of NADPH by Michaelis-Menten analysis.
Experiment [14] can be described thus: Inhibition of ALR2 in Wistar rat lens using D,L-glyceraldehyde as substrate preincubated for 10 mins in presence of NADPH followed by substrate addition and measured after 5 mins by spectrophotometric assay. The class given is tissue-based.
The species named for experiment [15] is Homo sapiens. Description: Selectivity ratio of IC50 for human PTP1B (1 to 298 residues) expressed in Escherichia coli BL21 (DE3) to IC50 for TCPTP (unknown origin).
For experiment [16], the target named is T2, Tyrosine-protein phosphatase non-receptor type 1. As to the kind of experiment: Inhibition of human PTP1B (1 to 298 residues) expressed in Escherichia coli using FDP as substrate by microplate reader.
The nature of experiment [17]: Inhibition of ALR2 in rat lens using D,L-glyceraldehyde as substrate in presence of NADPH. Type of experiment: tissue-based.
Experiment [18] deals with T2, Tyrosine-protein phosphatase non-receptor type 1. Description: Inhibition of human recombinant PTP1B (1 to 321 residues) expressed in Escherichia coli BL21 (DE3) assessed as inhibition constant using pNPP as substrate by Michaelis-Menten analysis.
For experiment [19], the target named is Receptor-type tyrosine-protein phosphatase alpha (Homo sapiens, UniProt P18433). As to the kind of experiment: Inhibition of human PTPalpha assessed as inhibition constant.
Experiment [20] addresses Receptor-type tyrosine-protein phosphatase F (Rattus norvegicus, UniProt Q64604). As to the kind of experiment: Inhibition of rat recombinant LAR expressed in Escherichia coli assessed as inhibition constant using pNPP as substrate incubated for 5 mins by […].
For experiment [21], the target named is Dual specificity protein phosphatase 3 (Homo sapiens, UniProt P51452). Description: Inhibition of human recombinant VHR expressed in Escherichia coli BL21 (DE3) assessed as inhibition constant using pNPP as substrate by stopped-flow spectrophotometer.
Experiment [22] concerns the target Aldo-keto reductase family 1 member B1 (Sus scrofa, UniProt P80276). Description: Inhibition of ALR2 in pig lens using D,L-glyceraldehyde as substrate preincubated for 4 mins in presence of NADPH followed by substrate addition and measured after 4 mins by spectrophotometric assay. Type of experiment: tissue-based.
The species entered for experiment [23] is Homo sapiens. As to the kind of experiment: Selectivity ratio of IC50 for PTP1B (unknown origin) to IC50 for Protein phosphatase-lambda (unknown origin).
For experiment [24], the species on record is Homo sapiens. As to the kind of experiment: Selectivity ratio of IC50 for PTP1B (unknown origin) to IC50 for YOP (unknown origin).
The species named for experiment [25] is Homo sapiens. Description: Selectivity ratio of IC50 for PTP1B (unknown origin) to IC50 for TCPTP (unknown origin).
For experiment [26], the species on record is Homo sapiens. As to the kind of experiment: Selectivity ratio of IC50 for PTP1B (unknown origin) to IC50 for LAR (unknown origin).
For experiment [27], the target named is T2, Tyrosine-protein phosphatase non-receptor type 1. Description: Inhibition of PTP1B (unknown origin) using flurogenic substrate by fluorescence plate reader assay.
The species named for experiment [28] is Homo sapiens. Description: Selectivity ratio of IC50 for PTP1B (unknown origin) to IC50 for PP1 (unknown origin).
Experiment [29] addresses T1, Aldo-keto reductase family 1 member B1. Description: Inhibition of Aldose reductase in human muscle tissue using D,L-glyceraldehyde as substrate in presence of NADPH by spectrophotometric assay. Type of experiment: tissue-based.

Receptor-type tyrosine-protein phosphatase F, sequence (Q64604 whole entry): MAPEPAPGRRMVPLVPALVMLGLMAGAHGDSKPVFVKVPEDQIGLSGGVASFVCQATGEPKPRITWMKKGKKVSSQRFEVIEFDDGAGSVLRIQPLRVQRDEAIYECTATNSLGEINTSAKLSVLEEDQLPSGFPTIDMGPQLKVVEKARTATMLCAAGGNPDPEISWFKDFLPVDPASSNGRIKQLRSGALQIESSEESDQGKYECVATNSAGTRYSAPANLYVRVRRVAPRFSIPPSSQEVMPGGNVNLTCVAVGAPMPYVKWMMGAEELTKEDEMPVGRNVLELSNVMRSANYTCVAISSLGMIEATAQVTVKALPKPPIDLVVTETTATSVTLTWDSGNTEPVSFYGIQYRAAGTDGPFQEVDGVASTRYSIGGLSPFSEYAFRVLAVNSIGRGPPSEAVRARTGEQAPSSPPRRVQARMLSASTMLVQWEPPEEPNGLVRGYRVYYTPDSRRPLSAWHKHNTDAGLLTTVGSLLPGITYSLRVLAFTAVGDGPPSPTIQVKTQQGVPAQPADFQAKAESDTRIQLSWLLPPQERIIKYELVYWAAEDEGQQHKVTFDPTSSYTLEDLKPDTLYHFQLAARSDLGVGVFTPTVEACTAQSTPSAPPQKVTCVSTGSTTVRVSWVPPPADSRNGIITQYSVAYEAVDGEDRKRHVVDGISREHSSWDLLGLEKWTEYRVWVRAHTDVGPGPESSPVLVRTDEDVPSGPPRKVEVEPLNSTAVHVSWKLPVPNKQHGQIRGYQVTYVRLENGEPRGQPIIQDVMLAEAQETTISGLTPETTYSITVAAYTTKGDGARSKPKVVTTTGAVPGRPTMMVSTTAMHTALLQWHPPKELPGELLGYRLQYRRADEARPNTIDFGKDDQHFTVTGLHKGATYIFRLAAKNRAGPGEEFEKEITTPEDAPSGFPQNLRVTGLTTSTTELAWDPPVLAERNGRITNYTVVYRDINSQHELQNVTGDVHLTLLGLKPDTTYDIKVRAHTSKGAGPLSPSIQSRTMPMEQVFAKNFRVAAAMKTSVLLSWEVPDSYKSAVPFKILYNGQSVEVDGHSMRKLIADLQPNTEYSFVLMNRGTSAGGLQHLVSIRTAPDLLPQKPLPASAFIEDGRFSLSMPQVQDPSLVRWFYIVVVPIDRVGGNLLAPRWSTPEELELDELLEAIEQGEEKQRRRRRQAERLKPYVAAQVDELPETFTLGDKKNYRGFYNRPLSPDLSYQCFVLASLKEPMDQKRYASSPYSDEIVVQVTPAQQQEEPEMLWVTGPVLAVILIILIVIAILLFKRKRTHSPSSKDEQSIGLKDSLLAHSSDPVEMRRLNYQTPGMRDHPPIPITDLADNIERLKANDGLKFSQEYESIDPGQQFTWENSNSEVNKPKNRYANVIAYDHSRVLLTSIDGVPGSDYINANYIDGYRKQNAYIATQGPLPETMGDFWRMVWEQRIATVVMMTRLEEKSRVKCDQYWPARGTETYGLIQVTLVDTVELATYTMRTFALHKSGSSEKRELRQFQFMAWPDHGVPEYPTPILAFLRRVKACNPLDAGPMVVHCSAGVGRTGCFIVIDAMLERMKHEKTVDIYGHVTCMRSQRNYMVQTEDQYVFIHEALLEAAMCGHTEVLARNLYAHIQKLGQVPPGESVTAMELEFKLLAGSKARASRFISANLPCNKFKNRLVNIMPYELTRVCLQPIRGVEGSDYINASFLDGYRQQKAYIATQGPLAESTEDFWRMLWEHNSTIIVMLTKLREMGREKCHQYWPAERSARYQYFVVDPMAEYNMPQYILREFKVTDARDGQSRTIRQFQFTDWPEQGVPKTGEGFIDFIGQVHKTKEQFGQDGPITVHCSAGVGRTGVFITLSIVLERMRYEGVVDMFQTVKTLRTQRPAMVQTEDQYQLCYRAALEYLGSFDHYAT
Dual specificity protein phosphatase 3, sequence (P51452 whole entry): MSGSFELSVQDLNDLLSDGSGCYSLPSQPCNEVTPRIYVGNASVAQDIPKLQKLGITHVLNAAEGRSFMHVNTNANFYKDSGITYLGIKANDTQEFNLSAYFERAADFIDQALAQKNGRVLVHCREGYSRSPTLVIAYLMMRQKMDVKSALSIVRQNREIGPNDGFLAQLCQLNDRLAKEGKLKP
Receptor-type tyrosine-protein phosphatase alpha, sequence (P18433 whole entry): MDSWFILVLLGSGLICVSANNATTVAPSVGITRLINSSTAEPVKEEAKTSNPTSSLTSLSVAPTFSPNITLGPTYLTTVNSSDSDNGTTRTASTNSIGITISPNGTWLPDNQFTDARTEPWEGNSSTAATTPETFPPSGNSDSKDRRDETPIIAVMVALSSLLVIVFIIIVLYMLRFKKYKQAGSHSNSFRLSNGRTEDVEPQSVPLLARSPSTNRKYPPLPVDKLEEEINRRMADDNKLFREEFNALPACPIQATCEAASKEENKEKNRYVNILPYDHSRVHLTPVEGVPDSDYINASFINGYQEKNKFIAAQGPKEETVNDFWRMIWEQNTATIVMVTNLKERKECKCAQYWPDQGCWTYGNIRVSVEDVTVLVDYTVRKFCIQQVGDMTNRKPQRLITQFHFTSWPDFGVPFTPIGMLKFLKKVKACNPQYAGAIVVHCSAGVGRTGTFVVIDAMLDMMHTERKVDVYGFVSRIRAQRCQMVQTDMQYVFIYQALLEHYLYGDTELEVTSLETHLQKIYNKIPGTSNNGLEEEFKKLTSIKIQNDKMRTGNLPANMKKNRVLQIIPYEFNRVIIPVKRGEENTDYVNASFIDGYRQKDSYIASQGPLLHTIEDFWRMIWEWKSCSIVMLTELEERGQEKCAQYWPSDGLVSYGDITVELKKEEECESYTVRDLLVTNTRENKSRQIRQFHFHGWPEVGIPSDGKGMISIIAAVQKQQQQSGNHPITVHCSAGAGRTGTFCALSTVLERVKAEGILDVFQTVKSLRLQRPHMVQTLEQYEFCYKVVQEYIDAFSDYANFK

As to `CC(=O)N[C@@H](Cc1ccc(N(C(=O)C(=O)O)c2ccccc2C(=O)O)c2ccccc12)C(=O)NCCCCCOc1cc2ccccc2cc1C(=O)O`, the Ratio Ki was 2 in experiment [1]; 104 in experiment [2]; more than 13000 in experiment [3]; 36 in experiment [4]; 2700 in [5].
For the compound `O=[N+]([O-])c1cc(Br)cc2c1NC=NS2(=O)=O`, 4.6 µM corresponded to half-maximal inhibition in experiment [6] (IC50).
With `CCCCCCCCCCCCCCC(=O)N[C@@H](Cc1ccc(C(F)(F)P(=O)(O)O)cc1)C(=O)N[C@@H](CC(=O)O)C(=O)N[C@@H](Cc1ccc(C(F)(F)P(=O)(O)O)cc1)C(N)=O`, the inhibition constant Ki in [7] came out at 0.025 µM.
With `N#Cc1ccc(CNC(=O)c2ccc(Cl)cc2OCC(=O)O)cc1`, in experiment [8], the inhibitory constant (Ki) was determined as 2 µM.
On to `O=C(O)Cn1c(=O)c(Cc2ccc(Br)cc2F)nc2ccc(F)cc21`, for which the IC50 in [9] was found to be 0.00644 µM.
For the compound `COC(=O)c1c(O)cccc1OC/C=C/c1cccc(-c2onc(C(=O)O)c2CO)c1`, the Ki in experiment [10] worked out at 0.92 µM. The Ratio Ki in experiment [11] came to 20.
On the same counts, the results for `COC(=O)c1c(O)cccc1OC/C=C/c1ccc(F)c(-c2cc(C(=O)O)no2)c1` are 6.9 µM and 20.
For the compound `O=C1CC2(C(=O)N1)c1ccc(O)cc1C=Cc1cc(O)ccc12`, the concentration for half-maximal inhibition (IC50) in experiment [12] turned out to be 3 µM.
`COc1ccc2c(c1)C=Cc1cc(OC)ccc1C2/C=C1\SC(=O)NC1=O`: in [12], the IC50 was found to be 3.4 µM.
In the case of `N#Cc1ccc(CNC(=O)c2ccc(Cl)cc2OCC(=O)O)cc1[N+](=O)[O-]`, the Ki in experiment [13] is 0.107 µM.
As for `O=C(O)CC1=CN(/C=C/c2ccc(O)c(O)c2)S(=O)(=O)c2ccccc21`, the concentration for half-maximal inhibition (IC50) in experiment [14] came to 0.126 µM.
Take `COC(CC(C)C)c1ccc2ccc(CC(Cc3ccc(C(F)(F)P(=O)(O)O)cc3)(c3ccccc3)n3nnc4ccccc43)c(P(=O)(O)O)c2n1` (configuration not stated): in [15], the Ratio IC50 is 7.2. The same compound showed an IC50 in experiment [16] of 0.005 µM.
As for `CC(C(=O)O)N1C(=O)C(=O)N(Cc2cccc([N+](=O)[O-])c2)C1=O` (configuration not stated), the IC50 in [17] stood at 2 µM.
As for `O=C(CCc1ccc(C(F)(F)P(=O)(O)O)cc1)Nc1cc(NC(=O)CCc2ccc(C(F)(F)P(=O)(O)O)cc2)cc(C(=O)NCCc2ccc(C(=O)O)cc2)c1`, the inhibition constant Ki in experiment [18] came out at 0.93 µM; in experiment [19] it was 120 µM; in experiment [20] it was 100 µM; in experiment [21] it was 3600 µM.
Consider `Cc1cc2c(s1)CCC1CC(=O)N(CCCCCC(=O)O)N=C21` (configuration not stated), for which, in experiment [22], the IC50 amounted to 18 µM.
In the case of `COC(=O)C(O)c1ccc(NC(=O)CCCCn2cc(COc3ccc(-c4cc(C(=O)O)no4)cc3)nn2)cc1` (configuration not stated), the Ratio IC50 in experiment [23], in experiment [24], in experiment [25], in [26] and in [28] was 10 each time. Further, in [27], half-maximal inhibition (IC50) required 4.7 µM.
For the compound `Cc1ccc(F)c(N(C)S(=O)(=O)C[N+](=O)[O-])c1`, the IC50 in [29] came out at 0.35 µM.

Usually IC50 stands for the midpoint of a concentration-inhibition curve. One may read the Ki as the dissociation constant of the complex between target and ligand, obtained from inhibition or displacement.
